Positions of bridges follow the written chain, without caps; N, C: chain ends. Non-standard residues stand in square brackets, D forms with d. No end group written: not given here.
Key:
[1] = system: S. aureus MN8+mCherry biofilms; test: Fluorescence microscopy of biofilm adhesion to glass; assay type: cell-based, Staphylococcus aureus; conditions: 80 μM, 24 h, 37° C.
Protocol: (§1) FIG. 2. S. aureus biofilm structures become less robust when grown in the presence of designed peptide inhibitors. (A) S. aureus MN8+mCherry™ biofilms were grown on glass substrates for 24 hours and then cells were washed and fixed. Addition of peptide inhibitors (80 μM) reduced adhesion to the slide, causing cells to detach during the wash step. Images are representative of duplicate wells. (B) In S. aureus SH1000 WT biofilms grown in regular LB medium, PSM amyloid fibrils are visible as deposits in spaces between cells (left). Upon addition of the designed peptide AP90 (80 μM), no extracellular fibril deposits were observed (right).
(§2) To further investigate the ability of designed peptides to inhibit PSM amyloid formation, fluorescent (mCherry™ ) MN8 biofilms were grown in culture plates with glass bottom wells. After 24 hours at 37° C. the biofilms were gently rinsed with pipetted saline to remove unattached biomass and the remaining attached cells were fixed and imaged. […] These qualitative results are in good agreement with the quantitative results obtained for amyloid inhibition in FIG. 1B. Addition of anti-α-sheet peptides triggered a significant reduction in PSM amyloid formation as measured by ThT fluorescence and also served to weaken the S. aureus biofilms by reducing the PSM amyloid fibril content of the extracellular matrix. […]

[2] = system: S. aureus SH1000 WT biofilms; test: TEM of biofilm extracellular fibrils; assay type: cell-based, Staphylococcus aureus; conditions: LB medium, 80 μM
Protocol: as §1, §2

[3] = system: Pseudomonas aeruginosa (PA); test: Crystal violet biofilm assay; assay type: cell-based
Description: (§3) Furthermore, these same inhibitors are active against EC, SE, and SM.

[4] = system: Escherichia coli (EC); test: Crystal violet biofilm assay; assay type: cell-based
Description: as §3

[5] = system: Streptococcus mutans (SM); test: Crystal violet biofilm assay; assay type: cell-based
Description: as §3

[6] = system: Staphylococcus epidermidis (SE); test: Crystal violet biofilm assay; assay type: cell-based
Description: as §3

[7] = system: E. coli UTI89 WT biofilms; test: In situ ThT assay of EM amyloid in E. coli UTI89 WT biofilms; assay type: cell-based
Protocol: (§4) FIG. 12. […] Error bars indicate standard deviation of the mean of at least three replicates. Significance values are p<0.05: *, p<0.01: **, p<0.001: ***.
(§5) Biofilms of the cystitis E. coli isolate UTI89 were cultivated in YESCA broth with 4% DMSO at 26° C., conditions which are known to elicit increased curli biogenesis. Varying doses of the dimeric α-sheet peptide, AP193, were also added to the cultures at the time of inoculation. AP193 is covalently linked through a single cysteine in each of its constituent monomers. Since DMSO was already present in the biofilm growth medium, AP193 stocks were supplemented with 4% DMSO to improve solubility, and the buffer solution was maintained at high pH (sodium carbonate, pH 9.6) to retain oxidation of the disulfide bond. After 48 hours of growth, biofilms were washed, homogenized, and stained with ThT.
(§6) UTI89 biofilms were also cultivated in the presence of an unstructured peptide, P1, which retains a mixture of L- and D-amino acids but lacks the α-sheet secondary structure of AP193.

[8] = system: UTI89 ΔcsgA biofilms; test: In situ ThT assay in UTI89 ΔcsgA knockout biofilms; assay type: cell-based, E. coli; conditions: UTI89 ΔcsgA knockout strain
Protocol: as §4, §5, §6

[9] = system: E. coli UTI89 vsfGFP-9 biofilms; test: Immune clearance test: phagocytosis of biofilm bacteria by RAW 264.7 macrophages (flow cytometry); assay type: cell-based; conditions: RAW 264.7 cells, 10:1 bacteria:cell, 30 min, 37° C.
Protocol: FIG. 14. The macrophages are not able to phagocytose biofilm-associated bacteria (A). Administration of AP193 breaks up the biofilms and yields a greater fraction of free-swimming bacteria that are susceptible to phagocytosis (B).
To investigate this proposition, biofilms were cultivated in the presence or absence of synthetic α-sheet peptides (shown for AP193 in FIG. 14) and then co-incubated with murine macrophages. A chromosome-based GFP derivative of E. coli UTI89, vsfGFP-9, was used to visualize the extent of phagocytosis in each case with flow cytometry. Murine monocyte/macrophage-like cells, RAW 264.7, were cultured in DMED+10% FBS at 37° C. in 75 cm^2 flasks. Biofilms were grown in 48 well plates for 48 h in YESCA broth+4% DMSO at 26° C. Planktonic cells were aspirated and biofilms rinsed and gently detached from plates using sterile PBS. The suspensions were combined in a 10:1 (bacteria:cell) ratio with RAW 264.7 cells and incubated for 30 min at 37° C. in PBS to allow uptake of bacteria by macrophages. Trypsin was added at a concentration of 0.25% and incubated for 10 min to remove any bacteria bound to the external surfaces of the RAW 264.7 cells. […] Cells were then gated according to positive GFP (phagocytosed bacteria) using bacteria-free controls on a FACS Cantoll flow cytometer, and the percentage of cells positive for GFP was recorded and analyzed.

With “RGEmNlCwMNEYSGWcMnLkMGR (RGE[dM]N[dL]C[dW]MNEYSGW[dC]M[dN]L[dK]MGR; disulfide 7-16 (inferred)) [AP407, variant of AP90 with a disulfide bond]” the “Biofilm attachment to glass after rinsing” value [1] was “caused nearly all of the biofilm to detach”.

With “RGEmNlSwMNEYSGWtMnLkMGR (RGEMNLSWMNEYSGWTMNLKMGR; not fully specified (residues 4, 6, 8, 16, 18, 20); printed as RGEmNlSwMNEYSGWtMnLkMGR) [AP90]” the “Extracellular PSM amyloid fibril deposits by TEM” value [2] was “amyloid fibrils could not be found”, the “Biofilm inhibition (crystal violet, FIG. 10)” value [3] was “inhibition” and the “Activity against biofilm-forming bacteria (crystal violet)” value (“Activity” below) [4] was “active”. For the same substance, the “Activity” value [5] was “active” and the “Activity” value [6] was “active”.

With “RGEmNyFwMNEYYGWtMnCkMGR (RGE[dM]N[dY]F[dW]MNEYYGW[dT]M[dN]C[dK]MGR) [AP193, hydrophobic AP90 derivative, variant to support different chemical coupling reactions]” the “EM amyloid content of biofilm (ThT fluorescence), varying doses” value ([7]; YESCA broth + 4% DMSO, 26° C., 48 h) was “dose-dependent reduction in ThT fluorescence”, the “ThT fluorescence of biofilm at highest dose” value ([7]; highest dose) was “reduced the ThT fluorescence of WT biofilms to levels near those of the ΔcsgA strain” and the “ThT fluorescence of biofilm” value [8] was “no significant changes”. For the same substance, the “Susceptibility of biofilm bacteria to phagocytosis” value [9] was “more susceptible to phagocytosis”.

— patent publication US11033604B2, “Reagents and methods for treating bacterial infection” (priority 2018, dated 2021)
